Legend:
[1] = molecular target: human RIPK3 (Homo sapiens (Human), UniProt Q9Y572); test: KINOMEscan binding assay, human RIPK3; conditions: equilibrium dissociation constant
In short: (§1)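 Binding constants were derived by fitting qPCR-quantified bead-retained kinase against compound concentration to the Hill equation, slope set at −1. Compound series were 3-fold over 11 points with 1% DMSO; most top concentrations were 30,000 nM. Kinases were T7-phage-tagged or HEK-293-produced with DNA tags.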

[2] = tested on: U937 cells; test: Counter screen: U937 cell viability without TSQ cocktail (off-target effect); design: species or system human; conditions: Homo sapiens, U-937, compound without TSQ cocktail, read-out: Off-target effect (IC50 cell-based assay)
In short: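 Off-target viability counter screen: compounds titrated 36 μM down 1:3 over 10 points (0.3% DMSO) on 20,000 U937 cells/well, no TNF/Smac mimetic/Q-VD-OPh added, 48 h incubation. ATP-based CellTiter-Glo luminescence, four-parameter logistic IC50.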

[3] = tested on: U937 human histiocytic leukemia cell line; test: Inhibition of TSQ induced necroptosis in U937 cells (CellTitre-Glo); conditions: Homo sapiens, U-937, TSQ cocktail (TNF, Smac mimetic, Q-VD-OPh), 48 hours, read-out: Inhibition of TSQ-induced necroptosis (IC50 cell-based assay)
In short: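 Necroptosis was induced with TNF-Fc (100 ng/ml), Smac mimetic (500 nM) and Q-VD-OPh (10 μM) in 20000 U937 cells/well exposed to a 10-point, 3-fold compound series (top 36 μM, 0.3% DMSO). ATP luminescence read after 48 h; 4-parameter fit gave IC50. Parallel TSQ-free wells assessed compound toxicity.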

[4] = molecular target: mouse MLKL (full length) (Mus musculus (Mouse), UniProt Q9D2Y4); test: KINOMEscan binding assay, mouse MLKL (full length); conditions: equilibrium dissociation constant
Sequence of mouse MLKL (full length) (Q9D2Y4 whole entry): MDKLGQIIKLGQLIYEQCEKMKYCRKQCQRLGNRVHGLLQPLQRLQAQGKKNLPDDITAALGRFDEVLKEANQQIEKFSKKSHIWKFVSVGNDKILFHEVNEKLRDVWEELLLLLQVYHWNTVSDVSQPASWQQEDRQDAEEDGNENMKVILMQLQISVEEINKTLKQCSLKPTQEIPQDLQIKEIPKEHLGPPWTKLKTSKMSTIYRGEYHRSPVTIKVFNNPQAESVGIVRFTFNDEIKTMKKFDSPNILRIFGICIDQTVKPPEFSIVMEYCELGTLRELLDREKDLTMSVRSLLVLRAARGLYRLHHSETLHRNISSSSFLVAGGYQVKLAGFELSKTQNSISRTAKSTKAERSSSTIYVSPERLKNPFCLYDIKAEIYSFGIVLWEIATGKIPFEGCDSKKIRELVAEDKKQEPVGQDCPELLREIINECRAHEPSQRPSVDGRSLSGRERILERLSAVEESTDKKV
Method: Binding affinity of the test compounds for human MLKL (full length), mouse MLKL (full length), human RIPK1 and human RIPK3 was determined using the KINOMEscan™ technology developed by DiscoverX (USA; http://www.discoverx.com). The assay was conducted according to manufacturer instructions.
Kinase assays. For most assays, kinase-tagged T7 phage strains were grown in parallel in 24-well blocks in an E. coli host derived from the BL21 strain. E. coli were grown to log-phase and infected with T7 phage from a frozen stock (multiplicity of infection=0.4) and incubated with shaking at 32° C. until lysis (90-150 minutes). The lysates were centrifuged (6,000×g) and filtered (0.2 μm) to remove cell debris. The remaining kinases were produced in HEK-293 cells and subsequently tagged with DNA for qPCR detection. […] The liganded beads were blocked with excess biotin and washed with blocking buffer (SeaBlock (Pierce), 1% BSA, 0.05% Tween 20, 1 mM DTT) to remove unbound ligand and to reduce non-specific phage binding. […] All reactions were performed in polypropylene 384-well plates in a final volume of 20 μL. […] The kinase concentration in the eluates was measured by qPCR.
An 11-point 3-fold serial dilution of each test compound was prepared in 100% DMSO at 100× final test concentration and subsequently diluted to 1× in the assay (final DMSO concentration=1%). Most Kos were determined using a compound top concentration=30,000 nM.
KD for each test compound was calculated with a standard dose-response curve using the Hill equation (equation (1)): […]
The Hill Slope was set to −1.
Curves were fitted using a non-linear least square fit with the Levenberg-Marquardt algorithm.

[5] = molecular target: human MLKL (full length) (Homo sapiens (Human), UniProt Q8NB16); test: KINOMEscan binding assay, human MLKL (full length); conditions: equilibrium dissociation constant
Sequence of human MLKL (full length) (Q8NB16 whole entry): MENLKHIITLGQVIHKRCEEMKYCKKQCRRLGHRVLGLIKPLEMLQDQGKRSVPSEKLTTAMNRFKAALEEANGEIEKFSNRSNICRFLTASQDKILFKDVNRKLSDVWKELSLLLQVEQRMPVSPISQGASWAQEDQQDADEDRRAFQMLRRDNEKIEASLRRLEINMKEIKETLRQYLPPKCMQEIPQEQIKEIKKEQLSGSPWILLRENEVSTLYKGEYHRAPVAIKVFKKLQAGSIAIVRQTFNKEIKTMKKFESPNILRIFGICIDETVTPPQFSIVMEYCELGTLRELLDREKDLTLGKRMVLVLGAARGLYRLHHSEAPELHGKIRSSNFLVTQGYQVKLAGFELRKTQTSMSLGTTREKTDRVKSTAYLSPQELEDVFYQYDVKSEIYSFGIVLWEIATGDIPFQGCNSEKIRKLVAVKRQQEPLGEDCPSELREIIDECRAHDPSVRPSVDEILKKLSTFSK
In short: as §1

[6] = molecular target: human RIPK1 (Homo sapiens (Human), UniProt Q13546); test: KINOMEscan binding assay, human RIPK1; conditions: equilibrium dissociation constant
Sequence of human RIPK1 (Q13546 whole entry): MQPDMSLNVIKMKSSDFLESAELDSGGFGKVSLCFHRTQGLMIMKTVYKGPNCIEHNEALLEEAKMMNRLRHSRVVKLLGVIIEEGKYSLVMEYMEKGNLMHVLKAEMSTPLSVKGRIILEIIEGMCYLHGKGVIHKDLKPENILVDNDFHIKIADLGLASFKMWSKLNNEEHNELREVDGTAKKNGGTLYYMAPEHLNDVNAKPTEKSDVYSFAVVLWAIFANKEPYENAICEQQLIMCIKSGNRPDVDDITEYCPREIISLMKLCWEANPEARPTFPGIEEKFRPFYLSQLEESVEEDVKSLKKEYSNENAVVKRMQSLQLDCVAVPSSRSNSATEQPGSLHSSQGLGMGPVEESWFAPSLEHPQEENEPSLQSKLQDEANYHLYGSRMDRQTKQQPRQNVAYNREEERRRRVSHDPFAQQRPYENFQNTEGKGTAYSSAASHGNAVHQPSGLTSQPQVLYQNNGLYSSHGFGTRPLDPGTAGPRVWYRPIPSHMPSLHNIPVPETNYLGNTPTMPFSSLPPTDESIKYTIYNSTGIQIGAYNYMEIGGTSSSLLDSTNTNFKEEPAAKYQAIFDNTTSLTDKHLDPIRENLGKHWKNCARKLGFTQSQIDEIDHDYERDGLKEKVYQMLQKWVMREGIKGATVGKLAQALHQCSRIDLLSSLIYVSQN
In short: as §1

Sequence of human RIPK3 (Q9Y572 whole entry): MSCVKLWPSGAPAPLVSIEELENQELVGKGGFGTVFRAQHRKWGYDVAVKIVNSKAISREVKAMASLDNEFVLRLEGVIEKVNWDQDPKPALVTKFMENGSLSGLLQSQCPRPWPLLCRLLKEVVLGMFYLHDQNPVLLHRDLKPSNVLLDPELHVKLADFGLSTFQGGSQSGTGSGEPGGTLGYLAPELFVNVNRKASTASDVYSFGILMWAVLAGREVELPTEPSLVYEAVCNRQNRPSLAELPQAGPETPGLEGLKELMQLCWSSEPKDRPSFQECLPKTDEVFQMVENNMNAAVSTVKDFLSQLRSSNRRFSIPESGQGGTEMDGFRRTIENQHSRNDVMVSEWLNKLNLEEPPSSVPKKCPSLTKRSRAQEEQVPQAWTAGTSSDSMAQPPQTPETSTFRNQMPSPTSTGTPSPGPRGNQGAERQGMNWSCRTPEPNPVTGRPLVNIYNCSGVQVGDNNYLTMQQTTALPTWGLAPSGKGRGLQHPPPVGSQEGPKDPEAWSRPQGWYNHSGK

Compound | Kd [1] [nM] | IC50 [2] [nM] | IC50 [3] [nM] | Kd [4] [nM] | Kd [5] [nM] | Kd [6] [nM]
C[C@H](Oc1cc(-c2coc3c(-c4cnn(CCO)c4)cnc(N)c23)ccc1NS(=O)(=O)C(F)F)c1ccc(F)cc1 [Compound 9, (S)-N-(4-(4-amino-7-(1-(2-hydroxyethyl)-1H-pyrazol-4-yl)furo[3,2-c]pyridin-3-yl)-2-(1-(4-fluorophenyl)ethoxy)phenyl)-1,1-difluoromethanesulfonamide] | > 10000 | 1000 to 10000 | 10 to 1000 | 1 to 100 | < 1 | > 10000
C[C@H](Oc1cc(-c2nn(C)c3c(-c4cnn(CCO)c4)cnc(N)c23)ccc1NS(=O)(=O)C(F)F)c1ccc(F)cc1 [Compound 15, (S)-N-(4-(4-amino-7-(1-(2-hydroxyethyl)-1H-pyrazol-4-yl)-1-methyl-1H-pyrazolo[4,3-c]pyridin-3-yl)-2-(1-(4-fluorophenyl)ethoxy)phenyl)-1,1-difluoromethanesulfonamide] | > 10000 | > 10000 | 10 to 1000 | < 1 | < 1 | > 10000
C[C@H](Oc1cc(-c2ccnc3[nH]nc(N)c23)ccc1NS(=O)(=O)C(F)F)c1ccc(F)cc1 [Compound 72, N-(4-(3-Amino-1H-pyrazolo[3,4-b]pyridin-4-yl)-2-((1S)-1-(4-fluorophenyl)ethoxy)phenyl)-1,1-difluoromethanesulfonamide] | > 10000 | > 10000 | 10 to 1000 | 1 to 100 | < 1 | > 10000
C[C@H](Oc1cc(-c2nn(C)c3c(-c4cnn(CCN5CCN(C)CC5)c4)cnc(N)c23)ccc1NS(=O)(=O)C(F)F)c1ccc(F)cc1 [Compound 60, (S)-N-(4-(4-amino-1-methyl-7-(1-(2-(4-methylpiperazin-1-yl)ethyl)-1H-pyrazol-4-yl)-1H-pyrazolo[4,3-c]pyridin-3-yl)-2-(1-(4-fluorophenyl)ethoxy)phenyl)-1,1-difluoromethanesulfonamide] | > 10000 | > 10000 | 10 to 1000 | < 1 | 1 to 100 | > 10000
Cc1cc(-c2ccc(NS(=O)(=O)C(F)F)c(OCc3ccc(F)cc3)c2)c2c(N)n[nH]c2n1 [Compound 70, N-(4-(3-Amino-6-methyl-1H-pyrazolo[3,4-b]pyridin-4-yl)-2-((4-fluorophenyl)methoxy)phenyl)-1,1-difluoromethanesulfonamide] | > 10000 | – | – | 1 to 100 | < 1 | > 10000
C[C@H](Oc1cc(-c2coc3c(-c4cnn(C5CCOCC5)c4)cnc(N)c23)ccc1NS(=O)(=O)C(F)F)c1ccc(F)cc1 [Compound 7, (S)-N-(4-(4-amino-7-(1-(tetrahydro-2H-pyran-4-yl)-1H-pyrazol-4-yl)furo[3,2-c]pyridin-3-yl)-2-(1-(4-fluorophenyl)ethoxy)phenyl)-1,1-difluoromethanesulfonamide] | > 10000 | 1000 to 10000 | 10 to 1000 | < 1 | 1 to 100 | > 10000
C[C@H](Oc1cc(-c2nn(C)c3c(-c4cnn(C5CCN(CC(F)(F)F)CC5)c4)cnc(N)c23)ccc1NS(=O)(=O)C(F)F)c1ccc(F)cc1 [Compound 61, (S)-N-(4-(4-amino-1-methyl-7-(1-(1-(2,2,2-trifluoroethyl)piperidin-4-yl)-1H-pyrazol-4-yl)-1H-pyrazolo[4,3-c]pyridin-3-yl)-2-(1-(4-fluorophenyl)ethoxy)phenyl)-1,1-difluoromethanesulfonamide] | > 10000 | > 10000 | 10 to 1000 | 1 to 100 | 1 to 100 | > 10000
Nc1ncc(-c2cnn(C3CCOCC3)c2)c2occ(-c3ccc(NS(=O)(=O)C(F)F)c(OCc4ccc(F)cc4)c3)c12 [Compound 5, N-(4-(4-amino-7-(1-(tetrahydro-2H-pyran-4-yl)-1H-pyrazol-4-yl)furo[3,2-c]pyridin-3-yl)-2-((4-fluorobenzyl)oxy)phenyl)-1,1-difluoromethanesulfonamide] | > 10000 | – | – | < 1 | < 1 | > 10000
C[C@H](Oc1cc(-c2nn(C)c3c(-c4cnn(C)c4)cnc(N)c23)ccc1NS(=O)(=O)C(F)F)c1ccc(F)cc1 [Compound 20, (S)-N-(4-(4-amino-1-methyl-7-(1-methyl-1H-pyrazol-4-yl)-1H-pyrazolo[4,3-c]pyridin-3-yl)-2-(1-(4-fluorophenyl)ethoxy)phenyl)-1,1-difluoromethanesulfonamide] | > 10000 | > 10000 | 10 to 1000 | < 1 | < 1 | > 10000
C[C@H](Oc1cc(-c2nn(C)c3c(-c4ccncc4)cnc(N)c23)ccc1NS(=O)(=O)C(F)F)c1ccc(F)cc1 [Compound 18, (S)-N-(4-(4-amino-1-methyl-7-(pyridin-4-yl)-1H-pyrazolo[4,3-c]pyridin-3-yl)-2-(1-(4-fluorophenyl)ethoxy)phenyl)-1,1-difluoromethanesulfonamide] | > 10000 | > 10000 | 10 to 1000 | 1 to 100 | < 1 | > 10000
Nc1n[nH]c2ncnc(-c3ccc(NS(=O)(=O)C(F)F)c(OCc4ccc(F)cc4)c3)c12 [Compound 69, N-(4-(3-Amino-1H-pyrazolo[3,4-d]pyrimidin-4-yl)-2-((4-fluorophenyl)methoxy)phenyl)-1,1-difluoromethanesulfonamide] | > 10000 | – | – | 1 to 100 | < 1 | > 10000
Nc1n[nH]c2nccc(-c3ccc(NS(=O)(=O)C(F)F)c(OCc4ccc(F)cc4)c3)c12 [Compound 66, N-(4-(3-Amino-1H-pyrazolo[3,4-b]pyridin-4-yl)-2-((4-fluorophenyl)methoxy)phenyl)-1,1-difluoromethanesulfonamide] | > 10000 | – | – | 1 to 100 | < 1 | > 10000
